Assay results published in ChEMBL document CHEMBL4507316 (2021).
Active and inactive are the calls of the source. The rule behind the calls is not given here.

Legend:
[1] = molecular target: Protein kinase C beta type (Homo sapiens) (UniProt P05771); experiment: PKC-beta1 ProQinase selectivity panel; conditions: Compound concentration 1.0 uM
[2] = molecular target: Tyrosine-protein kinase JAK3 (Homo sapiens) (UniProt P52333); experiment: JAK3 ProQinase selectivity panel; conditions: Compound concentration 1.0 uM
Chain of Tyrosine-protein kinase JAK3 (Homo sapiens) (P52333 whole entry): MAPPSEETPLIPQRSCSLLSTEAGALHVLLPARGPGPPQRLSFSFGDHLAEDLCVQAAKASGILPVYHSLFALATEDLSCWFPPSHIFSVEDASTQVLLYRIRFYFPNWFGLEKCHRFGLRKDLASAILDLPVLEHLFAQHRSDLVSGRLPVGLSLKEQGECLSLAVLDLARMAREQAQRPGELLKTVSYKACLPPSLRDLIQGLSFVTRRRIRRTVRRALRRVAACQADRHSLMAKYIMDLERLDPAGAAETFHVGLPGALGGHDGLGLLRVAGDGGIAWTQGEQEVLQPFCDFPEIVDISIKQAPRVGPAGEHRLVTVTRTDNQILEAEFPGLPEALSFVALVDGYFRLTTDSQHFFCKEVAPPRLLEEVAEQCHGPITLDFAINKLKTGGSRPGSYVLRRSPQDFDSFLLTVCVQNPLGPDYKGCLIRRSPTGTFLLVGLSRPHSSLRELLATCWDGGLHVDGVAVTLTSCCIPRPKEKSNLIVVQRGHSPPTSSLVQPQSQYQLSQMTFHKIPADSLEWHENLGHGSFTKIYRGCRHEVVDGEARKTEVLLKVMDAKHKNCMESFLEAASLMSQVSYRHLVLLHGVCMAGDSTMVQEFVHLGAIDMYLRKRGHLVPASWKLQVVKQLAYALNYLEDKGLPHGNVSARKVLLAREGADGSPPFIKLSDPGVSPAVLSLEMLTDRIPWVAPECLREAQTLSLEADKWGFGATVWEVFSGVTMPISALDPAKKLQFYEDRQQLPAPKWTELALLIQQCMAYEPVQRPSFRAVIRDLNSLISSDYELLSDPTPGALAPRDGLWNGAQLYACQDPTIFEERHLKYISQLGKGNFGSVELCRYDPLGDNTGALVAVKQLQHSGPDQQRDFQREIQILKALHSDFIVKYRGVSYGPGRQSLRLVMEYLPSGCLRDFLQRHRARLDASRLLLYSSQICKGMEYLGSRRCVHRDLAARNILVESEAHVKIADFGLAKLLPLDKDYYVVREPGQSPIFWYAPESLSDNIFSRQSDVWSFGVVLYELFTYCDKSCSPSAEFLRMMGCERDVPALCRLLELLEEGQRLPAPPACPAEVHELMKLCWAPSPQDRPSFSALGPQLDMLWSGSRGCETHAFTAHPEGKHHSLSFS

[3] = molecular target: Muscarinic acetylcholine receptor M3 (Homo sapiens) (UniProt P20309); conditions: Compound concentration 10.0 uM
[4] = molecular target: Calcium/calmodulin-dependent protein kinase type II subunit alpha (Homo sapiens) (UniProt Q9UQM7); experiment: CAMK2A ProQinase selectivity panel; conditions: Compound concentration 1.0 uM
[5] = molecular target: Dual specificity protein kinase CLK2 (Homo sapiens) (UniProt P49760); experiment: CLK2 ProQinase selectivity panel; conditions: Compound concentration 1.0 uM
[6] = molecular target: Dual specificity mitogen-activated protein kinase kinase 1 (Homo sapiens) (UniProt Q02750); experiment: MEK1 ProQinase selectivity panel; conditions: Compound concentration 1.0 uM
Chain of Dual specificity mitogen-activated protein kinase kinase 1 (Homo sapiens) (Q02750 whole entry): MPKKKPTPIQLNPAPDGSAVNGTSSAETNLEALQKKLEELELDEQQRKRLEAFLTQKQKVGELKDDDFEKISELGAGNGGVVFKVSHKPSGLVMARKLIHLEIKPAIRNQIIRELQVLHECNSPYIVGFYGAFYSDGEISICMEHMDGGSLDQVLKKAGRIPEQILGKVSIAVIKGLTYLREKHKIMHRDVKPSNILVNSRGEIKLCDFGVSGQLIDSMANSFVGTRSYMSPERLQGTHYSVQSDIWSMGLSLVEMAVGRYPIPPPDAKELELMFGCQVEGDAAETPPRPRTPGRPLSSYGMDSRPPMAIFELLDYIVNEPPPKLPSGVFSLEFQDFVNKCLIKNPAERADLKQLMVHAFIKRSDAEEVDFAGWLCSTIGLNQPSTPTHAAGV

[7] = molecular target: Serine/threonine-protein kinase Sgk1 (Homo sapiens) (UniProt O00141); experiment: SGK1 ProQinase selectivity panel; conditions: Compound concentration 1.0 uM
[8] = molecular target: Mitogen-activated protein kinase 14 (Homo sapiens) (UniProt Q16539); experiment: p38-alpha ProQinase selectivity panel; conditions: Compound concentration 1.0 uM
Chain of Mitogen-activated protein kinase 14 (Homo sapiens) (Q16539 whole entry): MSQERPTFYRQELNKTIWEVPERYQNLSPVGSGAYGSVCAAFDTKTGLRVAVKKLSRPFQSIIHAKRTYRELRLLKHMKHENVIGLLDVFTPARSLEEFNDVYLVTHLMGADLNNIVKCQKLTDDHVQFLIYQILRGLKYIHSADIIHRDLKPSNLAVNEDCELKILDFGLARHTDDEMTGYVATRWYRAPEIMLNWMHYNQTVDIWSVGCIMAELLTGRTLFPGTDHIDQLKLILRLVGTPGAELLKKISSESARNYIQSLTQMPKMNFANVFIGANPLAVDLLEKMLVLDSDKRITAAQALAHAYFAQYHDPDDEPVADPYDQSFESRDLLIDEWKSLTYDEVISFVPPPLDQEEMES

[9] = molecular target: Misshapen-like kinase 1 (Homo sapiens) (UniProt Q8N4C8); experiment: MINK1 ProQinase selectivity panel; conditions: Compound concentration 1.0 uM
[10] = molecular target: Cyclin-dependent kinase 1/cyclin B (Homo sapiens) (UniProt P06493+P14635+Q8WWL7+O95067); experiment: CDK1/CycB1 ProQinase selectivity panel; format: protein-complex assay; conditions: Compound concentration 1.0 uM
[11] = molecular target: Dual specificity protein kinase CLK1 (Homo sapiens) (UniProt P49759); experiment: CLK1 ProQinase selectivity panel; conditions: Compound concentration 1.0 uM
[12] = system: Epidermal growth factor receptor (Homo sapiens), P00533 [UNDEFINED MUTATION]; experiment: EGF-R d747-752/P753S ProQinase selectivity panel; conditions: Compound concentration 1.0 uM
[13] = molecular target: D(1B) dopamine receptor (Homo sapiens) (UniProt P21918); conditions: Compound concentration 10.0 uM
[14] = molecular target: Ephrin type-A receptor 4 (Homo sapiens) (UniProt P54764); experiment: EPHA4 ProQinase selectivity panel; conditions: Compound concentration 1.0 uM
[15] = molecular target: Activated CDC42 kinase 1 (Homo sapiens) (UniProt Q07912); experiment: ACK1 ProQinase selectivity panel; conditions: Compound concentration 1.0 uM
[16] = molecular target: Activin receptor type-1 (Homo sapiens) (UniProt Q04771); experiment: ACV-R1 ProQinase selectivity panel; conditions: Compound concentration 1.0 uM
[17] = molecular target: Mitogen-activated protein kinase 11 (Homo sapiens, UniProt Q15759); experiment: NanoBRET (MAPK11)
[18] = molecular target: Bone morphogenetic protein receptor type-1A (Homo sapiens) (UniProt P36894); experiment: BMPR1A ProQinase selectivity panel; conditions: Compound concentration 1.0 uM
Chain of Bone morphogenetic protein receptor type-1A (Homo sapiens) (P36894 whole entry): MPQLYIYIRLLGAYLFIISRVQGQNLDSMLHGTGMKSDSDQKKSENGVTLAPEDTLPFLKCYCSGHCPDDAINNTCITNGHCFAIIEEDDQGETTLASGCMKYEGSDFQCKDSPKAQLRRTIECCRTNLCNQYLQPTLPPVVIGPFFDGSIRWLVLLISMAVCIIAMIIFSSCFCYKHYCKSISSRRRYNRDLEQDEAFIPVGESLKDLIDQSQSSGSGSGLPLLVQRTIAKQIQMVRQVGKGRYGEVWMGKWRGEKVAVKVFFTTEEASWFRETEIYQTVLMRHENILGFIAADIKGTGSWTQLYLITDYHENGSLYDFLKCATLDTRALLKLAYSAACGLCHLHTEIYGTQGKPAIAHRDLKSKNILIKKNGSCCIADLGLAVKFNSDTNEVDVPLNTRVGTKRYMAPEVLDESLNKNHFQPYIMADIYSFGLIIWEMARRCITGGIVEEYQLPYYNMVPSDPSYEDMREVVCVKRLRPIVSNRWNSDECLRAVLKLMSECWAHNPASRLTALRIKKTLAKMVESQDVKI

[19] = molecular target: Alpha-2A adrenergic receptor (Homo sapiens) (UniProt P08913); conditions: Compound concentration 10.0 uM
[20] = molecular target: LIM domain kinase 1 (Homo sapiens) (UniProt P53667); experiment: LIMK1 ProQinase selectivity panel; conditions: Compound concentration 1.0 uM
[21] = molecular target: Ribosomal protein S6 kinase alpha-2 (Homo sapiens) (UniProt Q15349); experiment: RPS6KA2 ProQinase selectivity panel; conditions: Compound concentration 1.0 uM
[22] = molecular target: Serine/threonine-protein kinase 3 (Homo sapiens) (UniProt Q13188); experiment: MST2 ProQinase selectivity panel; conditions: Compound concentration 1.0 uM
[23] = molecular target: Muscarinic acetylcholine receptor M5 (Homo sapiens) (UniProt P08912); conditions: Compound concentration 10.0 uM
Chain of Muscarinic acetylcholine receptor M5 (Homo sapiens) (P08912 whole entry): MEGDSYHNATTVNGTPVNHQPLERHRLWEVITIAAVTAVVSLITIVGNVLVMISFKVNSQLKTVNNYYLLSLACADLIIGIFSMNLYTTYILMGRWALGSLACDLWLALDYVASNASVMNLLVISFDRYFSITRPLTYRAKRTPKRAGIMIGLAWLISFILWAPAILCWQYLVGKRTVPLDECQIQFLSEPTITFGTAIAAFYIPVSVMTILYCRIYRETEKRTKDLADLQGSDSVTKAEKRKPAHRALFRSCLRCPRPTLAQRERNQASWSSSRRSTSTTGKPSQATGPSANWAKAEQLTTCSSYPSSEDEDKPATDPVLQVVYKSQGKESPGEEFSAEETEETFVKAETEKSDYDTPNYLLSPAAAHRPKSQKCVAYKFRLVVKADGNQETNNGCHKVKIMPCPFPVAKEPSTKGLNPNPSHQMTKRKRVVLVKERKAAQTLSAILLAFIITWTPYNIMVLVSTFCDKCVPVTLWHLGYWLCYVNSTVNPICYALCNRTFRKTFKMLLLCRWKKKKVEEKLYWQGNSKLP

[24] = system: Hepatocyte growth factor receptor (Homo sapiens), P08581 [D1228N]; experiment: MET D1228N ProQinase selectivity panel; conditions: Compound concentration 1.0 uM
[25] = molecular target: Mitogen-activated protein kinase 12 (Homo sapiens) (UniProt P53778); experiment: p38-gamma ProQinase selectivity panel; conditions: Compound concentration 1.0 uM
[26] = molecular target: Protein-tyrosine kinase 2-beta (Homo sapiens) (UniProt Q14289); experiment: PYK2 ProQinase selectivity panel; conditions: Compound concentration 1.0 uM
[27] = molecular target: Hepatocyte growth factor receptor (Homo sapiens) (UniProt P08581); experiment: MET wt ProQinase selectivity panel; conditions: Compound concentration 1.0 uM
[28] = molecular target: Myosin light chain kinase, smooth muscle (Homo sapiens) (UniProt Q15746); experiment: MYLK ProQinase selectivity panel; conditions: Compound concentration 1.0 uM
[29] = molecular target: Ephrin type-A receptor 2 (Homo sapiens) (UniProt P29317); experiment: EPHA2 ProQinase selectivity panel; conditions: Compound concentration 1.0 uM
[30] = molecular target: 5-hydroxytryptamine receptor 1B (Homo sapiens) (UniProt P28222); conditions: Compound concentration 10.0 uM
[31] = molecular target: Sigma intracellular receptor 2 (Homo sapiens, UniProt Q5BJF2); conditions: Compound concentration 10.0 uM
Chain of Sigma intracellular receptor 2 (Q5BJF2 whole entry): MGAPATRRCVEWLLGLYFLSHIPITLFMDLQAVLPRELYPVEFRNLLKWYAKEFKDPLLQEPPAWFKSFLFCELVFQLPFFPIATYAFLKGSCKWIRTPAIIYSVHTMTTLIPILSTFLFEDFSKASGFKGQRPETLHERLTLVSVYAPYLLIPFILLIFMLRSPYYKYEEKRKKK

[32] = molecular target: Vascular endothelial growth factor receptor 1 (Homo sapiens) (UniProt P17948); experiment: VEGF-R1 ProQinase selectivity panel; conditions: Compound concentration 1.0 uM
[33] = molecular target: Vascular endothelial growth factor receptor 3 (Homo sapiens) (UniProt P35916); experiment: VEGF-R3 ProQinase selectivity panel; conditions: Compound concentration 1.0 uM
[34] = molecular target: Receptor tyrosine-protein kinase erbB-4 (Homo sapiens) (UniProt Q15303); experiment: ERBB4 ProQinase selectivity panel; conditions: Compound concentration 1.0 uM
[35] = molecular target: Protein kinase C delta type (Homo sapiens) (UniProt Q05655); experiment: PKC-delta ProQinase selectivity panel; conditions: Compound concentration 1.0 uM
Chain of Protein kinase C delta type (Homo sapiens) (Q05655 whole entry, looked up): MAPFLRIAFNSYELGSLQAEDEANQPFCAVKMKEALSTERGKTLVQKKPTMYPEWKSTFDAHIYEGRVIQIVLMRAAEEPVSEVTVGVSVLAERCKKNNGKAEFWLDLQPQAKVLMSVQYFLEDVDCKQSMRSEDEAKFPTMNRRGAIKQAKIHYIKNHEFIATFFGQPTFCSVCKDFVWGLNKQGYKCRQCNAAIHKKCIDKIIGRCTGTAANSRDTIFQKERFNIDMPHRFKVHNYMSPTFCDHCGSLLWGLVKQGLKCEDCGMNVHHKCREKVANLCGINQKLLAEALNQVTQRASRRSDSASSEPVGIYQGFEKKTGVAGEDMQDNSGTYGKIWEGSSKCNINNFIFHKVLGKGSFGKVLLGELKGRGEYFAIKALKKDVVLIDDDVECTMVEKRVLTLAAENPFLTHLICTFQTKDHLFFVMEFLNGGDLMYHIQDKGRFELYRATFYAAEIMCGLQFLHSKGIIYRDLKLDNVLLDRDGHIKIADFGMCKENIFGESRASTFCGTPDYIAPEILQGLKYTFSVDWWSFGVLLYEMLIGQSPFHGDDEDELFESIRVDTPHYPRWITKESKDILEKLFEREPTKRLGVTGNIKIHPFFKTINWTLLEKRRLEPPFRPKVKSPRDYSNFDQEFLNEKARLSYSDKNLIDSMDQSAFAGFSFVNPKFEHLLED

[36] = molecular target: Serine/threonine-protein kinase mTOR (Homo sapiens) (UniProt P42345); experiment: mTOR ProQinase selectivity panel; conditions: Compound concentration 1.0 uM
[37] = molecular target: Mitogen-activated protein kinase kinase kinase 2 (Homo sapiens) (UniProt Q9Y2U5); experiment: MEKK2 ProQinase selectivity panel; conditions: Compound concentration 1.0 uM
[38] = molecular target: Mitogen-activated protein kinase kinase kinase kinase 2 (Homo sapiens) (UniProt Q12851); experiment: MAP4K2 ProQinase selectivity panel; conditions: Compound concentration 1.0 uM
[39] = molecular target: Tyrosine-protein kinase Lck (Homo sapiens) (UniProt P06239); experiment: LCK ProQinase selectivity panel; conditions: Compound concentration 1.0 uM
[40] = molecular target: Tyrosine-protein kinase Srms (Homo sapiens) (UniProt Q9H3Y6); experiment: SRMS ProQinase selectivity panel; conditions: Compound concentration 1.0 uM
[41] = molecular target: Sodium-dependent serotonin transporter (Homo sapiens) (UniProt P31645); conditions: Compound concentration 10.0 uM
[42] = molecular target: Homeodomain-interacting protein kinase 3 (Homo sapiens) (UniProt Q9H422); experiment: HIPK3 ProQinase selectivity panel; conditions: Compound concentration 1.0 uM
[43] = system: Hepatocyte growth factor receptor (Homo sapiens), P08581 [M1250T]; experiment: MET M1250T ProQinase selectivity panel; conditions: Compound concentration 1.0 uM
[44] = molecular target: Focal adhesion kinase 1 (Homo sapiens) (UniProt Q05397); experiment: FAK ProQinase selectivity panel; conditions: Compound concentration 1.0 uM
Chain of Focal adhesion kinase 1 (Homo sapiens) (Q05397 2-1052 limits assumed): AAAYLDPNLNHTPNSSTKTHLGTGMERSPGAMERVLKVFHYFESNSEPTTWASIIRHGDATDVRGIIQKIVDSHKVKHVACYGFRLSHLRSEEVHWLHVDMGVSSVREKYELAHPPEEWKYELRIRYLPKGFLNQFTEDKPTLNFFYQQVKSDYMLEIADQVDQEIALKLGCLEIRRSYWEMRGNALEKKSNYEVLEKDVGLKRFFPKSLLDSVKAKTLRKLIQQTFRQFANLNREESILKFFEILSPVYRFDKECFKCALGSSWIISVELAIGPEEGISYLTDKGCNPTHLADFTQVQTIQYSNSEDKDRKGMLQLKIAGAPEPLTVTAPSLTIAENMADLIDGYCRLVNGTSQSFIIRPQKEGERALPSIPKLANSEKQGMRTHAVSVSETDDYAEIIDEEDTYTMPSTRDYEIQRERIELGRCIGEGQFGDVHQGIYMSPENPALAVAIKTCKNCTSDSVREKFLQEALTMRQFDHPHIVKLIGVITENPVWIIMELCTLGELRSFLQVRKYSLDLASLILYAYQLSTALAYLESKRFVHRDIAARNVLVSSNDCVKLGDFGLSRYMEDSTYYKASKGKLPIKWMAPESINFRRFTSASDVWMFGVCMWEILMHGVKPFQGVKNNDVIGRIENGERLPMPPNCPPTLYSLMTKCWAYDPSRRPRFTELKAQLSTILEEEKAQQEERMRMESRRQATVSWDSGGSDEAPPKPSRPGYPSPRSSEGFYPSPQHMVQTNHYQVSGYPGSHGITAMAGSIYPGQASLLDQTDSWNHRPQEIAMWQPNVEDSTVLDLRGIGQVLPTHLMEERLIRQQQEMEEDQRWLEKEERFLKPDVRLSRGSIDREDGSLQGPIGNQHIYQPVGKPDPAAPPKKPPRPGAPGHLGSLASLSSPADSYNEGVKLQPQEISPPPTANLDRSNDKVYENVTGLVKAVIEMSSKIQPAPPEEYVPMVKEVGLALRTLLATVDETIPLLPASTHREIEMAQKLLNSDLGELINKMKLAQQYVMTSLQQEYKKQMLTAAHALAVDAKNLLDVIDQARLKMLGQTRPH

[45] = molecular target: 5-hydroxytryptamine receptor 7 (Homo sapiens) (UniProt P34969); conditions: Compound concentration 10.0 uM
[46] = system: Serine/threonine-protein kinase B-raf (Homo sapiens), P15056 [V600E]; experiment: B-RAF V600E ProQinase selectivity panel; conditions: Compound concentration 1.0 uM
[47] = molecular target: Calcium/calmodulin-dependent protein kinase type IV (Homo sapiens) (UniProt Q16566); experiment: CAMK4 ProQinase selectivity panel; conditions: Compound concentration 1.0 uM
[48] = molecular target: NUAK family SNF1-like kinase 2 (Homo sapiens) (UniProt Q9H093); experiment: SNARK ProQinase selectivity panel; conditions: Compound concentration 1.0 uM
[49] = system: Hepatocyte growth factor receptor (Homo sapiens), P08581 [Y1230A]; experiment: MET Y1230A ProQinase selectivity panel; conditions: Compound concentration 1.0 uM

O=C1c2ccc(Nc3ccc(F)cc3F)cc2CCc2ccc(OC[C@H](O)CO)cc21 [Skepinone-L]
% Residual activity with Skepinone-L [1]: 103% | % Residual activity with Skepinone-L [2]: 103% | inhibition [3]: 11.2% | % Residual activity with Skepinone-L [4]: 83% | % Residual activity with Skepinone-L [5]: 89% | % Residual activity with Skepinone-L [6]: 79% | % Residual activity with Skepinone-L [7]: 90% | % Residual activity with Skepinone-L [8]: 0% | % Residual activity with Skepinone-L [9]: 94% | % Residual activity with Skepinone-L [10]: 83% | % Residual activity with Skepinone-L [11]: 106% | % Residual activity with Skepinone-L [12]: 93% | inhibition [13]: 21% | % Residual activity with Skepinone-L [14]: 93% | % Residual activity with Skepinone-L [15]: 108% | % Residual activity with Skepinone-L [16]: 94% | IC50 [17]: 40.2 nM (active) | % Residual activity with Skepinone-L [18]: 100% | inhibition [19]: 39.6% | % Residual activity with Skepinone-L [20]: 109% | % Residual activity with Skepinone-L [21]: 90% | % Residual activity with Skepinone-L [22]: 83% | inhibition [23]: -9.46% | % Residual activity with Skepinone-L [24]: 95% | % Residual activity with Skepinone-L [25]: 102% | % Residual activity with Skepinone-L [26]: 102% | % Residual activity with Skepinone-L [27]: 108% | % Residual activity with Skepinone-L [28]: 78% | % Residual activity with Skepinone-L [29]: 119% | inhibition [30]: 15.2% | inhibition [31]: 53.1% | % Residual activity with Skepinone-L [32]: 113% | % Residual activity with Skepinone-L [33]: 100% | % Residual activity with Skepinone-L [34]: 106% | % Residual activity with Skepinone-L [35]: 104% | % Residual activity with Skepinone-L [36]: 97% | % Residual activity with Skepinone-L [37]: 89% | % Residual activity with Skepinone-L [38]: 89% | % Residual activity with Skepinone-L [39]: 102% | % Residual activity with Skepinone-L [40]: 95% | inhibition [41]: 20.7% | % Residual activity with Skepinone-L [42]: 91% | % Residual activity with Skepinone-L [43]: 100% | % Residual activity with Skepinone-L [44]: 113% | inhibition [45]: -9.25% | % Residual activity with Skepinone-L [46]: 135% | % Residual activity with Skepinone-L [47]: 111% | % Residual activity with Skepinone-L [48]: 115% | % Residual activity with Skepinone-L [49]: 91%
